From patent US12071431B2, “Pyridin-sulfonamide compounds for the treatment of conditions related to interleukin 1 beta” (ALLINKY BIOPHARMA, priority 2018, dated 2024)

Test system: IL-1β
Assay: In vitro inhibition of IL-1β in human primary macrophages challenged with LPS (ELISA)
Type: cell-based
Details: Primary macrophage, 2 hours compound pre-treatment, 100 ng/mL LPS, 16 hours, read-out: IC50 (IL-Iβ inhibition)
Description: Example 12—In Vitro Inhibition of IL-1β in Human Primary Macrophages Challenged with LPS
5 mL of RPMI media without serum (1:1) was added to a sample of 5 mL of human whole blood in EDTA or sodium citrate and mixed well by inversion. 3 mL of Histopaque-1077 was added to a 15 mL conical centrifuge tube and brought to room temperature. Using a transfer pipette, 10 mL of the blood-RPMI mixture was carefully layered onto the Histopaque-1077 and was centrifuged at 400×g for exactly 30 minutes at room temperature.
After centrifugation, a pasteur pipette was used to aspirate the upper layer to within 0.5 cm of the opaque interface containing the mononuclear cells. The upper layer was discarded. With a Pasteur pipette, the opaque interface was carefully transferred to a clean conical centrifuge tube. 5 mL RPMI was added to the tube and mixed by inversion, followed by centrifugation at 250×g for exactly 10 minutes. The supernatant was aspirated and discarded.
The leukocyte pellet was re-suspended with 5 mL RPMI and mixed gently with a Pasteur pipette, followed by centrifugation at 250×g for exactly 10 minutes. The pellet was washed 3× with PBS and re-suspended in RPMI medium.
2×10^5 PBMCs at a total volume of 200 μL/well were plated into a 96-well plate and incubated for 4 hrs at 37° C. in a CO2 incubator to allow the monocytes to settle, leaving the lymphocytes in suspension. Following incubation, 100 μL were aspirated out of each well to ensure removal of the lymphocyte population.
The monocytes were differentiated to macrophages by addition of 200 ng/mL of recombinant human GM-CSF (4 mg/mL stock) and incubated at 37° C./5% CO2 for 6 days. The medium was changed every two days by removing half the volume of medium in the well and re-supplementing with fresh RPMI complete medium and recombinant human GM-CSF.
Following differentiation, the cells were treated in duplicates with a compound according to the invention in a total volume of 50 μL, maintaining a final DMSO percentile of 0.5%. The plate was transferred to an incubator maintained at 37° C./5% CO2 for 2 hours. The cells were stimulated with 100 ng/mL of LPS (4×) (1 mg/mL stock) in a total volume of 50 μL.
The plate was transferred to an incubator maintained at 37° C./5% CO2 for 16 hours.
• 1. Each well from a pre-coated ELISA plate was aspirated and washed with wash buffer (0.05% Tween 20 in PBS; pH 7.2-7.4) by filling each well with wash buffer (300 μL). The process was repeated two times for a total of three washes. The liquid was removed completely at each step. After the last wash, any remaining wash buffer was removed. • 2. Plates were blocked by adding 300 μL of block buffer (1% BSA in PBS) to each well and incubated at room temperature for 1 hour. • 3. The aspiration/wash as in step 1 was repeated. • 4. 100 μL of sample or standard prepared in reagent diluent (0.1% BSA, 0.05% Tween 20 in PBS pH7.2-7.4) was added. The wells were covered with an adhesive strip and incubated for 2 hours at room temperature. • 5. The aspiration/wash as in step 1 was repeated. • 6. 100 μL of detection antibody, diluted in reagent diluent, was added to each well. The wells were covered with a new adhesive strip and incubated for 2 hours at room temperature. • 7. The aspiration/wash as in step 1 was repeated. • 8. 100 μL of the working dilution (1:200 from the stock) and streptavidin-HRP was added to each well. The plate was covered and incubated for 20 minutes at room temperature. • 9. 100 μL of substrate solution (1:1 mixture of H2O2 and tetramethylbenzidine) was added to each well and incubated for 20 minutes at room temperature. • 10.50 μL of stop solution (2N H2SO4) was added to each well. The plate was tapped gently to ensure thorough mixing. • 11. The optical density of each well was determined immediately using a microplate reader (Spectramax Plus) set to 450 nm. Cytokine Viability Assessment […]

CCOc1ccc(Oc2cc(S(=O)(=O)N(C)C)cnc2N2CCC(Oc3ccc(Cl)cc3)CC2)cc1 [Compound 7]
IC50: 27 nM
